The numbers were not newly measured in publication PMC12451523 (RSC Advances, 2025), which cites them from elsewhere.

In the series the target is fungal tyrosinase. The following applies: read-out: IC50 (μM) ± S.E., standard inhibitors, ref [50].

As to `O=c1cc(CO)occ1O` [Kojic acid], the IC50 – broadly, the concentration needed to halve the response being measured – is 30.3 ± 1 µM. For `O=C1O[C@H]([C@@H](O)CO)C(O)=C1O` [Ascorbic acid], the 50% inhibitory concentration (IC50) was 11.5 ± 1 µM.
